Source: ChEMBL document CHEMBL1201862, “PubChem BioAssay data set” (2004)
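Test compounds were applied to cells in 96-well plates for 48 hours at 5 doses. GI50: concentration for 50% inhibition of growth.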 Active and inactive are the calls of the source. Rule as the data show it: active = GI50 up to about 1.1 µM and inactive = higher.

Assays:
Test in all cases: growth of human tumour cells (NCI), 48 h
[1] = tested on: DLD-1
[2] = tested on: DMS-114
[3] = tested on: KM-20L2
[4] = tested on: LXFL 529
[5] = tested on: SNB-78
[6] = tested on: XF498
[7] = tested on: RXF 631
[8] = tested on: DMS-273
[9] = tested on: HOP-18

Cc1cccc2c1N(C(=O)/C=C\C(=O)O)C(c1c(C)[nH]c3ccccc13)C2 (centres undefined)
GI50 [1]: 33.6 µM (inactive)
GI50 [2]: 19.9 µM (inactive)
GI50 [3]: > 100 µM (inactive)
GI50 [4]: 15.3 µM (inactive)
GI50 [5]: 31.2 µM (inactive)
GI50 [6]: 21.9 µM (inactive)

CC1=C(C(=O)Nc2cc(=O)n(C)c(=O)n2C)C(c2ccco2)C(C(=O)Nc2cc(=O)n(C)c(=O)n2C)=C(C)N1
GI50 [1]: > 100 µM (inactive)
GI50 [2]: > 100 µM (inactive)
GI50 [3]: > 100 µM (inactive)
GI50 [4]: > 100 µM (inactive)
GI50 [7]: > 100 µM (inactive)
GI50 [5]: > 100 µM (inactive)
GI50 [6]: > 100 µM (inactive)

O=c1c(-c2ccccc2)c(O)nc2[nH]c3ccccc3n12
GI50 [1]: > 100 µM (inactive)
GI50 [2]: > 100 µM (inactive)
GI50 [8]: > 100 µM (inactive)
GI50 [9]: > 100 µM (inactive)
GI50 [3]: > 100 µM (inactive)
GI50 [4]: > 100 µM (inactive)
GI50 [7]: > 100 µM (inactive)
GI50 [5]: > 100 µM (inactive)
GI50 [6]: > 100 µM (inactive)

COc1ccc(OC)c2[s+]snc12
GI50 [1]: 49.5 µM (inactive)
GI50 [8]: > 100 µM (inactive)
GI50 [3]: > 100 µM (inactive)
GI50 [4]: 35.6 µM (inactive)
GI50 [7]: > 100 µM (inactive)
GI50 [5]: > 100 µM (inactive)
GI50 [6]: 45.3 µM (inactive)

COc1cc2c(cc1OC)C(C(=O)c1cccc(OC)c1OC)C(=O)N(C)CC2 (centres undefined)
GI50 [1]: > 100 µM (inactive)
GI50 [2]: 56.5 µM (inactive)
GI50 [8]: > 100 µM (inactive)
GI50 [9]: > 100 µM (inactive)
GI50 [3]: > 100 µM (inactive)
GI50 [4]: > 100 µM (inactive)
GI50 [7]: > 100 µM (inactive)
GI50 [6]: 63.4 µM (inactive)

CCN(CC)CCNc1ccc2nnn3c4ccccc4c(=O)c1c23
GI50 [1]: 4.19 µM (inactive)
GI50 [2]: 6.55 µM (inactive)
GI50 [8]: 3.66 µM (inactive)
GI50 [3]: 3.32 µM (inactive)
GI50 [4]: 5.22 µM (inactive)
GI50 [7]: 2.88 µM (inactive)
GI50 [5]: > 10 µM (inactive)
GI50 [6]: 3.49 µM (inactive)

COC(=O)/C=C/C1C2C3(CCC(C)C12C)OCCS3 (centres undefined)
GI50 [1]: > 100 µM (inactive)
GI50 [2]: > 100 µM (inactive)
GI50 [8]: > 100 µM (inactive)
GI50 [9]: > 100 µM (inactive)
GI50 [3]: > 100 µM (inactive)
GI50 [4]: > 100 µM (inactive)
GI50 [5]: > 100 µM (inactive)
GI50 [6]: > 100 µM (inactive)

COc1ccc(C2CC(=O)c3c(O)cc(O)cc3O2)cc1O (centres undefined)
GI50 [1]: > 100 µM (inactive)
GI50 [2]: > 100 µM (inactive)
GI50 [8]: > 100 µM (inactive)
GI50 [3]: > 100 µM (inactive)
GI50 [4]: > 100 µM (inactive)
GI50 [7]: > 100 µM (inactive)
GI50 [5]: > 100 µM (inactive)
GI50 [6]: > 100 µM (inactive)

CNS(=O)(=O)NNS(=O)(=O)c1ccc(Br)cc1
GI50 [1]: > 100 µM (inactive)
GI50 [2]: > 100 µM (inactive)
GI50 [8]: > 100 µM (inactive)
GI50 [9]: 2.64 µM (inactive)
GI50 [3]: > 100 µM (inactive)
GI50 [4]: > 100 µM (inactive)
GI50 [7]: > 100 µM (inactive)
GI50 [5]: > 100 µM (inactive)
GI50 [6]: > 100 µM (inactive)

O=C(c1ccccn1)c1nc(-c2ccc(Cl)c(Cl)c2)nc2ccc(Cl)cc12
GI50 [1]: 99.3 µM (inactive)
GI50 [2]: 64.6 µM (inactive)
GI50 [8]: 32 µM (inactive)
GI50 [3]: > 100 µM (inactive)
GI50 [4]: 46.6 µM (inactive)
GI50 [5]: > 100 µM (inactive)
GI50 [6]: 20.8 µM (inactive)

CN(C)CCC(=O)N1C/C(=C/c2ccccc2)C(=O)/C(=C\c2ccccc2)C1
GI50 [1]: 0.931 µM (active)
GI50 [2]: 1.41 µM (inactive)
GI50 [8]: 1.55 µM (inactive)
GI50 [9]: 4.46 µM (inactive)
GI50 [3]: 0.998 µM (active)
GI50 [4]: 1.92 µM (inactive)
GI50 [7]: 2.29 µM (inactive)
GI50 [5]: 3 µM (inactive)
GI50 [6]: 2.5 µM (inactive)

O=C(NC12CC3CCC1CC(C3)C2)[C@@H]1CCCN1C(=O)OCc1ccccc1 (some centres undefined)
GI50 [1]: 56.9 µM (inactive)
GI50 [2]: 50.4 µM (inactive)
GI50 [8]: 49.8 µM (inactive)
GI50 [9]: > 100 µM (inactive)
GI50 [3]: 46.9 µM (inactive)
GI50 [4]: 30.3 µM (inactive)
GI50 [5]: 49.9 µM (inactive)
GI50 [6]: 19.2 µM (inactive)
